# Data taken from paper PMC12028158, “Synthesis and In Vitro Evaluation of the Anticancer Effect of Novel Phosphonium Vindoline Derivatives” (International Journal of Molecular Sciences, 2025).
# Where two headings read alike, the source gives them in different places.
# Legend:
# Format in all cases: cell-based
# HCT-116 [1] = assay: NCI60 five-dose screen; conditions: Homo sapiens
# Leukemia panel = assay: NCI60 five-dose screen, panel mean; conditions: Homo sapiens
# MCF7 [2] = assay: NCI60 five-dose screen; conditions: Homo sapiens
# SK-MEL-5 = assay: NCI60 five-dose screen; conditions: Homo sapiens
# SNB-75 = assay: NCI60 five-dose screen; conditions: Homo sapiens; SNB-75, CNS Cancer; read-out: GI50
# RXF 393 = assay: NCI60 five-dose screen; conditions: Homo sapiens
# UACC-62 [3] = assay: NCI60 one-dose screen; conditions: Homo sapiens
# A549/ATCC = assay: NCI60 one-dose screen; conditions: Homo sapiens
# UO-31 [4] = assay: NCI60 one-dose screen; conditions: Homo sapiens
# SK-OV-3 = assay: NCI60 five-dose screen; conditions: Homo sapiens
# SK-MEL-28 = assay: NCI60 five-dose screen; conditions: Homo sapiens
# HOP-62 = assay: NCI60 one-dose screen; conditions: Homo sapiens
# DU-145 = assay: NCI60 five-dose screen; conditions: Homo sapiens
# HCT-15 = assay: NCI60 five-dose screen; conditions: Homo sapiens
# M14 = assay: NCI60 one-dose screen; conditions: Homo sapiens
# MDA-MB231ATCC = assay: NCI60 five-dose screen; conditions: Homo sapiens, MDA-MB-231; MDA-MB231ATCC, Breast Cancer; read-out: GI50
# NCI-H322M = assay: NCI60 one-dose screen; conditions: Homo sapiens, read-out: Growth percent
# U251 = assay: NCI60 one-dose screen; conditions: Homo sapiens
# UO-31 [5] = assay: NCI60 five-dose screen; conditions: Homo sapiens; UO-31, Renal Cancer; read-out: GI50
# HCT-116 [6] = assay: NCI60 one-dose screen; conditions: Homo sapiens
# OVCAR-5 = assay: NCI60 one-dose screen; conditions: Homo sapiens
# CAKI-1 = assay: NCI60 five-dose screen; conditions: Homo sapiens
# NCI-H226 [7] = assay: NCI60 one-dose screen; conditions: Homo sapiens
# HS 578T = assay: NCI60 five-dose screen; conditions: Homo sapiens
# Ovarian Cancer panel = assay: NCI60 five-dose screen, panel mean; conditions: Homo sapiens
# HL-60(TB) = assay: NCI60 one-dose screen; conditions: Homo sapiens, HL-60, read-out: Growth percent
# MCF7 [8] = assay: NCI60 one-dose screen; conditions: Homo sapiens
# NCI-H23 = assay: NCI60 five-dose screen; conditions: Homo sapiens
# NCI-H226 [9] = assay: NCI60 five-dose screen; conditions: Homo sapiens
# UACC-62 [10] = assay: NCI60 five-dose screen; conditions: Homo sapiens
# NCI-H460 = assay: NCI60 five-dose screen; conditions: Homo sapiens
# UACC-257 = assay: NCI60 five-dose screen; conditions: Homo sapiens
# SK-MEL-2 = assay: NCI60 five-dose screen; conditions: Homo sapiens, SK-MEL-2, SK-MEL-2, Melanoma; read-out: GI50
# [11] = system: 60 human tumor cell lines (NCI60); assay: NCI60 five-dose screen, overall mean
# Prostate Cancer panel = assay: NCI60 five-dose screen, panel mean; conditions: Homo sapiens
# SN12C = assay: NCI60 one-dose screen; conditions: Homo sapiens, read-out: Growth percent
# K-562 = assay: NCI60 one-dose screen; conditions: Homo sapiens
# SR = assay: NCI60 five-dose screen; conditions: Homo sapiens
# NCI/ADR-RES = assay: NCI60 one-dose screen; conditions: Homo sapiens, read-out: Growth percent
# [12] = UACC-62, read-out: Growth percent
# [13] = UO-31, read-out: Growth percent
# [14] = HOP-62, read-out: Growth percent
# [15] = U-251, read-out: Growth percent
# [16] = HCT-116, read-out: Growth percent
# [17] = OVCAR-5, read-out: Growth percent
# [18] = NCI-H226, read-out: Growth percent
# [19] = 60 cell, read-out: Mean GI50, mean over all 60 cell lines
structure (smiles),measurement,setting,value
CCC12C=CCN3CCC4(c5ccc(OC)cc5N(C)C4C(O)(C(=O)OC)C1OC(=O)c1ccc(C[P+](c4ccccc4)(c4ccccc4)c4ccccc4)cc1)C32 (centres unmarked) [compound 12],GI50,"HCT-116 [1]; HCT-116, Colon Cancer, read-out: GI50",1590 nM
same,GI50,"Leukemia panel; mean over Leukemia panel, read-out: GI50 Mean",770 nM
same,GI50,"MCF7 [2]; MCF7, MCF7, Breast Cancer, read-out: GI50",442 nM
same,GI50,"SK-MEL-5; SK-MEL-5, Melanoma, read-out: GI50",1210 nM
same,GI50,SNB-75,1110 nM
same,GI50,"RXF 393; RXF 393, Renal Cancer, read-out: GI50",1140 nM
same,activity at 10 µM,"UACC-62 [3]; UACC-62, 10 μM, one-dose, read-out: Growth percent",-86.9%
same,activity at 10 µM,"A549/ATCC; A549/ATCC, 10 μM, one-dose, read-out: Growth percent",31%
same,activity at 10 µM,"UO-31 [4]; UO-31, 10 μM, one-dose, read-out: Growth percent",88.3%
same,GI50,"SK-OV-3; SK-OV-3, Ovarian Cancer, read-out: GI50",2700 nM
same,GI50,"SK-MEL-28; SK-MEL-28, Melanoma, read-out: GI50",520 nM
same,activity at 10 µM,"HOP-62; HOP-62, 10 μM, one-dose, read-out: Growth percent",-32.7%
same,GI50,"DU-145; DU-145, Prostate Cancer, read-out: GI50",1.61 µM
same,GI50,"HCT-15; HCT-15, Colon Cancer, read-out: GI50",27.4 µM
same,activity at 10 µM,"M14; M14, 10 μM, one-dose, read-out: Growth percent",-73.9%
same,GI50,MDA-MB231ATCC,686 nM
same,activity at 10 µM,"NCI-H322M; 10 μM, one-dose",19.9%
same,activity at 10 µM,"U251; U-251, U251, 10 μM, one-dose, read-out: Growth percent",-72.6%
same,GI50,UO-31 [5],20 µM
same,activity at 10 µM,"HCT-116 [6]; HCT-116, 10 μM, one-dose, read-out: Growth percent",-62.8%
same,activity at 10 µM,"OVCAR-5; OVCAR-5, 10 μM, one-dose, read-out: Growth percent",2.52%
same,GI50,"CAKI-1; CAKI-1, Renal Cancer, read-out: GI50",3.26 µM
same,activity at 10 µM,"NCI-H226 [7]; NCI-H226, 10 μM, one-dose, read-out: Growth percent",-23.1%
same,GI50,"HS 578T; HS 578T, Breast Cancer, read-out: GI50",1270 nM
same,GI50,"Ovarian Cancer panel; mean over Ovarian Cancer panel, read-out: GI50 Mean",15.8 µM
same,activity at 10 µM,HL-60(TB),-69%
same,activity at 10 µM,"MCF7 [8]; MCF7, 10 μM, one-dose, read-out: Growth percent",-52.8%
same,GI50,"NCI-H23; NCI-H23, Non-small Cell Lung Cancer, read-out: GI50",2810 nM
same,GI50,"NCI-H226 [9]; NCI-H226, Non-small Cell Lung Cancer, read-out: GI50",1.54 µM
same,GI50,"UACC-62 [10]; UACC-62, Melanoma, read-out: GI50",1030 nM
same,GI50,"NCI-H460; NCI-H460, Non-small Cell Lung Cancer, read-out: GI50",1660 nM
same,GI50,"UACC-257; UACC-257, UACC-257, Melanoma, read-out: GI50",918 nM
same,GI50,SK-MEL-2,1270 nM
same,GI50,"[11]; mean over all 60 human cancer cell lines, read-out: GI50 Mean",4.33 µM
same,GI50,"Prostate Cancer panel; mean over Prostate Cancer panel, read-out: GI50 Mean",1130 nM
same,activity at 10 µM,"SN12C; 10 μM, one-dose",-46.5%
same,activity at 10 µM,"K-562; K562, K-562, 10 μM, one-dose, read-out: Growth percent",-54.9%
CC[C@]12C=CCN3CC[C@@]4(c5ccc(OC)cc5N(C)[C@H]4[C@@](O)(C(=O)OC)[C@@H]1OC(=O)CCC[P+](C1CCCCC1)(C1CCCCC1)C1CCCCC1)[C@@H]32 [9d],GI50,HCT-116 [1]; HCT-116,2850 nM
same,GI50,Leukemia panel; read-out: Mean GI50,1200 nM
same,GI50,MCF7 [2]; MCF7,1190 nM
same,GI50,SK-MEL-5; SK-MEL-5,1760 nM
same,GI50,RXF 393; RXF 393,1470 nM
same,activity at 10 µM,UACC-62 [3]; [12],-97.3%
same,activity at 10 µM,"A549/ATCC; A549, read-out: Growth percent",14.1%
same,activity at 10 µM,UO-31 [4]; [13],76.8%
same,GI50,SK-OV-3; SK-OV-3,2590 nM
same,GI50,SK-MEL-28; SK-MEL-28,1080 nM
same,activity at 10 µM,HOP-62; [14],4.26%
same,GI50,SR,1.35 µM
same,GI50,DU-145; DU-145,3.75 µM
same,activity at 10 µM,NCI/ADR-RES,100%
same,GI50,HCT-15; HCT-15,15.3 µM
same,activity at 10 µM,"M14; M14, read-out: Growth percent",-78%
same,activity at 10 µM,NCI-H322M,24.5%
same,activity at 10 µM,U251; [15],-82.5%
same,activity at 10 µM,HCT-116 [6]; [16],0.16%
same,activity at 10 µM,OVCAR-5; [17],11%
same,GI50,CAKI-1; CAKI-1,16.4 µM
same,activity at 10 µM,NCI-H226 [7]; [18],-20%
same,GI50,HS 578T; Hs-578T,2450 nM
same,GI50,Ovarian Cancer panel; read-out: Mean GI50,7.12 µM
same,activity at 10 µM,HL-60(TB),-37.1%
same,activity at 10 µM,"MCF7 [8]; MCF7, read-out: Growth percent",-72.2%
same,GI50,NCI-H23; NCI-H23,2310 nM
same,GI50,NCI-H226 [9]; NCI-H226,4.06 µM
same,GI50,UACC-62 [10]; UACC-62,1410 nM
same,GI50,NCI-H460; NCI-H460,2770 nM
same,GI50,UACC-257; UACC-257,1260 nM
same,GI50,[11]; [19],3.8 µM
same,GI50,Prostate Cancer panel; read-out: Mean GI50,2730 nM
same,activity at 10 µM,SN12C,-40.5%
same,activity at 10 µM,"K-562; K562, read-out: Growth percent",3.31%
CC[C@]12C=CCN3CC[C@@]4(c5ccc(OC)cc5N(C)[C@H]4[C@@](O)(C(=O)OC)[C@@H]1OC(=O)CCC[P+](c1ccc(F)cc1)(c1ccc(F)cc1)c1ccc(F)cc1)[C@@H]32 [9c],GI50,HCT-116 [1]; HCT-116,14800 nM
same,GI50,Leukemia panel; read-out: Mean GI50,7250 nM
same,GI50,MCF7 [2]; MCF7,8260 nM
same,GI50,SK-MEL-5; SK-MEL-5,8260 nM
same,GI50,RXF 393; RXF 393,8460 nM
same,activity at 10 µM,UACC-62 [3]; [12],-59.5%
same,activity at 10 µM,"A549/ATCC; A549, read-out: Growth percent",54.5%
same,activity at 10 µM,UO-31 [4]; [13],81.5%
same,GI50,SK-OV-3; SK-OV-3,15800 nM
same,GI50,SK-MEL-28; SK-MEL-28,5340 nM
same,activity at 10 µM,HOP-62; [14],64%
same,GI50,SR,7.45 µM
same,GI50,DU-145; DU-145,23.7 µM
same,activity at 10 µM,NCI/ADR-RES,104%
same,GI50,HCT-15; HCT-15,> 48.5 µM
same,activity at 10 µM,"M14; M14, read-out: Growth percent",21.4%
same,activity at 10 µM,NCI-H322M,65.2%
same,activity at 10 µM,U251; [15],18.5%
same,activity at 10 µM,HCT-116 [6]; [16],32.2%
same,activity at 10 µM,OVCAR-5; [17],67%
same,GI50,CAKI-1; CAKI-1,> 48.5 µM
same,activity at 10 µM,NCI-H226 [7]; [18],46.9%
same,GI50,HS 578T; Hs-578T,11800 nM
same,GI50,Ovarian Cancer panel; read-out: Mean GI50,19 µM
same,activity at 10 µM,HL-60(TB),-22.9%
same,activity at 10 µM,"MCF7 [8]; MCF7, read-out: Growth percent",7.7%
same,GI50,NCI-H23; NCI-H23,15800 nM
same,GI50,NCI-H226 [9]; NCI-H226,24.2 µM
same,GI50,UACC-62 [10]; UACC-62,6050 nM
same,GI50,NCI-H460; NCI-H460,17000 nM
same,GI50,UACC-257; UACC-257,4670 nM
same,GI50,[11]; [19],17 µM
same,GI50,Prostate Cancer panel; read-out: Mean GI50,18200 nM
same,activity at 10 µM,SN12C,16.6%
same,activity at 10 µM,"K-562; K562, read-out: Growth percent",21.6%
